Laboratory results published in patent publication US20030190370A1, “Antibacterial agents, and antibacterial and deodorizing solution comprising the same” (priority 2000, published 2003).

Assays:
[1] = Investigation of discoloration resistance (UV exposure, judged by eye); assay type: physicochemical; details: in tap water, complexes diluted to 2% (10-40 ppm silver ion), silver compounds 40 ppm, UV 2 hr
[2] = tested on: (Candida Albicans ATCC 11651); assay: Minimum growth inhibition concentration, test-tube dilution method; assay type: cell-based
Experimental: (§1) The minimum growth inhibition concentration was measured using test-tube dilution method in order to evaluate the antibacterial activity of the silver complexes obtained in Examples 1-5.

[3] = tested on: E. coli (Escherichia coli ATCC 25922); assay: as above; assay type: cell-based; details: E. coli ATCC 25922
Experimental: as §1

[4] = tested on: E. coli O-157 (Escherichia coli ATCC 43895); assay: as above; assay type: cell-based; details: E. coli O-157 ATCC 43895
Experimental: as §1

[5] = tested on: Staphylococcus aureus ATCC 25923; assay: as above; assay type: cell-based
Experimental: as §1

[6] = tested on: Staphylococcus aureus ATCC 6538P; assay: as above; assay type: cell-based
Experimental: as §1

[7] = tested on: Trichophyton rubrum ATCC 28188; assay: as above; assay type: cell-based
Experimental: as §1

[8] = tested on: Yeast (Trentopholia odorata); assay: as above; assay type: cell-based
Experimental: as §1

Row | Compound | Discoloration [1] | Minimum Growth Inhibition Concentration [2] | Minimum Growth Inhibition Concentration [3] | Minimum Growth Inhibition Concentration [4] | Minimum Growth Inhibition Concentration [5] | Minimum Growth Inhibition Concentration [6] | Minimum Growth Inhibition Concentration [7] | Minimum Growth Inhibition Concentration [8]
1 | O=C([O-])c1ccccc1.[Ag+] [Silver benzoate solution, silver beiizoate, reference compound] | 1 |  |  |  |  |  |  | 
2 | O=[N+]([O-])[O-].[Ag+] [Silver nitrate solution, silver nitrate, reference compound] | 1 |  |  |  |  |  |  | 
3 | Silver-diethanolamine Complex [Example 5] | 3 | 1 ppm | 1 ppm | 3 ppm | 6 ppm | 7 ppm | 2 ppm | <1 ppm
4 | Silver-triethanolamine Complex [Example 4] | 3 | 1 ppm | 1 ppm | 3 ppm | 5 ppm | 5 ppm | 2 ppm | <1 ppm
